Test results taken from patent US20160296529A1, “AMINOTRIAZOLOPYRIDINE FOR USE IN THE TREATMENT OF INFLAMMATION, AND PHARMACEUTICAL COMPOSITIONS THEREOF” (priority 2012, published 2016).
Read-outs that look alike come from different tables or passages of the source.

Columns and labels:
[1] = Single dose pharmacokinetics in animals, rabbit; assay type: in vivo, New Zealand White rabbits
Method: Pharmacokinetic studies were performed in various animal species dosed with the compound according to Formula II to determine the exposure to the compound according to Formula I as well as its apparent terminal half life (T1/2), when possible.
Sprague-Dawley rats (male, 200-250 g), CD1 mice (male, 25-30 g), Beagle dogs (male, 9-10 kg), Göttingen minipigs (male, […]) were acclimatized for at least 7 days before treatment and were kept on a 12 hr light/dark cycle (07 h00-19 h00).
Temperature was maintained at approximately 22° C., and food and water were provided ad libitum. […]
Blood samples were collected over a 24-h period via the jugular vein (dog, minipig), ear blood vessel (rabbit), cardiac puncture (mouse) or retro-orbital sinus (rat) with lithium heparin as anti-coagulant. Whole blood samples were centrifuged and the resulting plasma samples were stored at −20° C. pending analysis.
Plasma concentrations of the compound according to Formula I and of the compound according to Formula II were determined by an LC-MS/MS method with a limit of quantification ≦10.0 ng/mL for both Formula I and Formula II for all species.
Pharmacokinetic parameters were calculated using a statistical analysis package (WinNonLin (Pharsight, Sunnyvale, Calif.: CA 94086, USA).

rat CIA model = experiment: CIA model 2 (rat collagen induced arthritis, ankle diameter); assay type: in vivo, Female Lewis rats
Text: Female Lewis rats (n=76) that weighed 165-194 grams (mean approx. 178 g) on arthritis day 0 were obtained from Charles River Laboratories, Inc., Wilmington, Mass., (ref#393739). Animals were identified by a distinct number at the base of the tail delineating group and animal number.
Upon arrival, animals were housed 4/cage in shoe-box polycarbonate cages and acclimated for 8 days prior to being immunized with type II collagen. No concurrent medications were given.
During the acclimation and study periods, animals were housed in a laboratory environment with temperatures ranging 19-25° […]. and relative humidity of 30%-70%. Automatic timers provided 12 h of light and 12 h of dark. Animals were allowed access ad libitum to food and water.
Acclimated female Lewis rats were anesthetized with Isoflurane and receive subcutaneous/intradermal (SC/ID) injections with 300 μL of Freund's Incomplete Adjuvant (Difco, Detroit, Mich.) containing 2 mg/mL bovine type II collagen (Elastin Products, Owensville, Mo.) at the base of the tail and 2 sites on the back on day −9 and on day −3.
Collagen was prepared by making a 4 mg/mL solution in 0.01N Acetic acid. Equal volumes of collagen and Freund's incomplete adjuvant, were emulsified by hand mixing until a bead of this material holds its form when placed in water. Each animal received 300 μL of the mixture on each occasion divided over 3 subcutaneous sites on back.
On study day 1, onset of arthritis occurred and animals were randomized into treatment groups. After randomization, all cages were labelled with protocol number, group number, and animal numbers. Randomization into each group was done after ankle joint swelling was obviously established and there was good evidence of bilateral disease.
Animals with established type II collagen arthritis were treated daily (QD) by the oral (PO) route for 13 days with vehicle (methylcellulose 0.5% (w/v)), or with active compound(s) prepared in methylcellulose, 0.5% (w/v). Oral dosing was initiated on arthritis day 1 and continued daily (QD at 24 h intervals) through day 13. Animals were terminated on arthritis day 14.
The severity of the arthritis was evaluated by measuring the diameter of both ankles on the animals. Caliper measurements of ankles were taken every day beginning on day 0, with a Digitrix II micrometer (Fowler & NSK). Baseline measurements were taken using one ankle with values rounded to one-thousandth of an inch. Measurements were confirmed as clinically normal (0.260-0.264 in) by comparison with historical values for rats based on a range of body weights. Baseline measurements were then applied to both ankles, and these values remain with the animal so long as the ankle was clinically normal with good definition of all the ankle bones and no evidence of inflammation. Animals were terminated on day 14.

Nc1nc2cccc(-c3ccc(CN4CCS(=O)(=O)CC4)cc3)n2n1 [Formula I, 5-[4-(1,1-Dioxothiomorpholin-4-ylmethyl)-phenyl]-[1,2,4]triazolo[1,5-a]pyridin-2-ylamine]
AUC ([1]; New Zealand White, plasma, female, Formula I 125 mg/kg single oral dose, read-out: AUC): 777 µg·h/mL | AUC ([1]; New Zealand White, plasma, female, Formula I 250 mg/kg single oral dose, read-out: AUC): 1030 µg·h/mL | Ratio I/II of exposure (AUC Formula I : AUC Formula II) ([1]; after Formula II 20 mg/kg oral): 0.38 | AUC ([1]; male, New Zealand White, plasma, after Formula II 20 mg/kg oral, read-out: exposure (expressed as AUC)): 10 µg·h/mL | half-life ([1]; male, New Zealand White, plasma, oral, upon administration of Formula II, read-out: apparent terminal elimination half-life (converted)): 4.6 h | significance to vehicle control (ANOVA) in the CIA second model (rat CIA model; group G: Formula I 25 mg/kg PO QD): mg/kg (*) (((*) = p ≦ 0.05 ANOVA to vehicle control)) | ankle diameter (rat CIA model; group G: Formula I 25 mg/kg PO QD, day 0): 0.2629 inches | ankle diameter (rat CIA model; group G: Formula I 25 mg/kg PO QD, day 1): 0.2717 inches | ankle diameter (rat CIA model; group G: Formula I 25 mg/kg PO QD, day 2): 0.2747 inches | ankle diameter (rat CIA model; group G: Formula I 25 mg/kg PO QD, day 3): 0.2826 inches | ankle diameter (rat CIA model; group G: Formula I 25 mg/kg PO QD, day 4): 0.2892 inches | ankle diameter (rat CIA model; group G: Formula I 25 mg/kg PO QD, day 5): 0.2973 inches | ankle diameter (rat CIA model; group G: Formula I 25 mg/kg PO QD, day 6): 0.3064 inches | ankle diameter (rat CIA model; group G: Formula I 25 mg/kg PO QD, day 7): 0.3108 inches | ankle diameter (rat CIA model; group G: Formula I 25 mg/kg PO QD, day 8): 0.3150 inches | ankle diameter (rat CIA model; group G: Formula I 25 mg/kg PO QD, day 9): 0.3089 inches | ankle diameter (rat CIA model; group G: Formula I 25 mg/kg PO QD, day 10): 0.3046 inches | ankle diameter (rat CIA model; group G: Formula I 25 mg/kg PO QD, day 11): 0.3025 inches | ankle diameter (rat CIA model; group G: Formula I 25 mg/kg PO QD, day 12): 0.3006 inches | ankle diameter (rat CIA model; group G: Formula I 25 mg/kg PO QD, day 13): 0.2996 inches | ankle diameter (rat CIA model; group G: Formula I 25 mg/kg PO QD, day 14): 0.3016 inches | significance to vehicle control (ANOVA) in the CIA second model (rat CIA model; group H: Formula I 50 mg/kg PO QD): mg/kg (*) (((*) = p ≦ 0.05 ANOVA to vehicle control)) | ankle diameter (rat CIA model; group H: Formula I 50 mg/kg PO QD, day 0): 0.2624 inches | ankle diameter (rat CIA model; group H: Formula I 50 mg/kg PO QD, day 1): 0.2718 inches | ankle diameter (rat CIA model; group H: Formula I 50 mg/kg PO QD, day 2): 0.2705 inches | ankle diameter (rat CIA model; group H: Formula I 50 mg/kg PO QD, day 3): 0.2814 inches | ankle diameter (rat CIA model; group H: Formula I 50 mg/kg PO QD, day 4): 0.2886 inches | ankle diameter (rat CIA model; group H: Formula I 50 mg/kg PO QD, day 5): 0.2970 inches | ankle diameter (rat CIA model; group H: Formula I 50 mg/kg PO QD, day 6): 0.3061 inches | ankle diameter (rat CIA model; group H: Formula I 50 mg/kg PO QD, day 7): 0.3110 inches | ankle diameter (rat CIA model; group H: Formula I 50 mg/kg PO QD, day 8): 0.3160 inches | ankle diameter (rat CIA model; group H: Formula I 50 mg/kg PO QD, day 9): 0.3085 inches | ankle diameter (rat CIA model; group H: Formula I 50 mg/kg PO QD, day 10): 0.3032 inches | ankle diameter (rat CIA model; group H: Formula I 50 mg/kg PO QD, day 11): 0.3041 inches | ankle diameter (rat CIA model; group H: Formula I 50 mg/kg PO QD, day 12): 0.3039 inches | ankle diameter (rat CIA model; group H: Formula I 50 mg/kg PO QD, day 13): 0.3014 inches | ankle diameter (rat CIA model; group H: Formula I 50 mg/kg PO QD, day 14): 0.2999 inches
